Source: patent EP4778924A1 (Huons Co., Ltd., priority 2023, dated 2025)
Counter-ions that a name gives are not always drawn.

Each compound was assayed against T1, Proton Pump (H^+,K^+-ATPase) (Sus scrofa, UniProt P19156) (assay: Inhibitory activity on proton pump (H+,K+-ATPase) activity, porcine gastric vesicles, malachite green readout). Settings: porcine gastric vesicles, pH 6.5, 8 mM KCl, 0.2 mM ATP.
T1 construct: gastric vesicles were isolated from porcine stomachs; from tissue; host or cells: porcine stomach (gastric vesicles)
Assay type: biochemical
Procedure: Specifically, gastric vesicles were isolated from porcine stomachs, and the protein content of the vesicles was quantified using a BSA kit (Bio-Rad, 5000205). All reactions were performed in 96-well plates with a reaction volume of […] containing 100 ng of vesicles. 10 mM valinomycin and the test compound were added to reaction buffer (50 mM Tris-HEPES, 5 mM MgCl2, 8 mM KCl, pH 6.5) containing porcine gastric vesicles at various concentrations, and the mixture was incubated at 37°C for 30 minutes. DMSO or test compounds at different concentrations were added after diluting them to a final DMSO concentration of 0.1%. 0.2 mM adenosine triphosphate (ATP) was then added to the reaction buffer and incubated at 37°C for 20 minutes. The reaction was stopped with 0.2% Tween 20, followed by the addition of malachite green (Sigma Aldrich, MAK307) and incubation at room temperature for 30 minutes. The optical density (OD) value was measured at 620 nm using a microplate reader (Spectramax M5e, Molecular devices). The percent (%) inhibition was derived from the OD values of the control group and various concentrations of the test compounds. The IC50 of the test compounds was analyzed using nonlinear regression using the GraphPad Prism8 program using the % inhibition value at each concentration.

T1 sequence (P19156 2-1034 limits assumed): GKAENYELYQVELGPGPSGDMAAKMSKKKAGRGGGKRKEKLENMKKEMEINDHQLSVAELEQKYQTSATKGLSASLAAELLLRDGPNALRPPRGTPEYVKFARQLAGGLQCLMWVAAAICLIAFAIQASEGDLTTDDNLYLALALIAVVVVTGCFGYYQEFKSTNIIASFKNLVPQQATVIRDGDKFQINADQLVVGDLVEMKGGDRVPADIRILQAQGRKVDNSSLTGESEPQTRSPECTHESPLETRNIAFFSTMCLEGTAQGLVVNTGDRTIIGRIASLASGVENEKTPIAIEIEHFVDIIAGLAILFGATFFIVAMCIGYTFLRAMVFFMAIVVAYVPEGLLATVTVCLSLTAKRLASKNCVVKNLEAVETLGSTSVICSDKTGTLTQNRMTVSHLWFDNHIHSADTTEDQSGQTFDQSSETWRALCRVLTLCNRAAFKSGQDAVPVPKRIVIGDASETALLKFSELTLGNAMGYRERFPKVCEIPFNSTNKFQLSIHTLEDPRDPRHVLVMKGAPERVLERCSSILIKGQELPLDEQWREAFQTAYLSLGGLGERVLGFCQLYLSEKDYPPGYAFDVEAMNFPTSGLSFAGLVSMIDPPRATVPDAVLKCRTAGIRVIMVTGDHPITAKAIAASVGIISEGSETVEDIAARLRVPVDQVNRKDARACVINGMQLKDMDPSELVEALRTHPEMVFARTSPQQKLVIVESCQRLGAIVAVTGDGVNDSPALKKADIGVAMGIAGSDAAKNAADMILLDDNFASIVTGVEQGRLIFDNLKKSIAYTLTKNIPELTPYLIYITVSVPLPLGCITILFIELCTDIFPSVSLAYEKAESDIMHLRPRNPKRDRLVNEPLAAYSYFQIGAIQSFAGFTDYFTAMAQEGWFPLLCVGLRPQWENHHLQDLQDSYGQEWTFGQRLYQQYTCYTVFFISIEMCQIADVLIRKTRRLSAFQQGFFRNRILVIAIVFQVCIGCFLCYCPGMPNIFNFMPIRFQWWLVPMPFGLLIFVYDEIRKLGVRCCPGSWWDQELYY
T1 sequence (P18434 whole entry partner): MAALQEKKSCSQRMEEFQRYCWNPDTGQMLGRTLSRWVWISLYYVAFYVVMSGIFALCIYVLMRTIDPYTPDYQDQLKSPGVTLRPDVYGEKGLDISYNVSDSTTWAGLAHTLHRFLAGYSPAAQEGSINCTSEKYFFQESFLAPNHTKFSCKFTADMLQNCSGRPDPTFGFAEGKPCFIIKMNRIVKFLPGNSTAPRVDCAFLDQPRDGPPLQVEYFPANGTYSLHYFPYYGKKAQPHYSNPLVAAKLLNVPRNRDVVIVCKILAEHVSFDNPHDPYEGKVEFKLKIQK

First: Cc1cccc(C)c1CNc1cc(Br)cn2c(C)c(C)nc12 [Comparative Example 1, reference compound]
Second: COC(=O)c1cc(NCc2c(C)cccc2C)c2nc(C)c(C)n2c1 [Comparative Example 2, reference compound]
The IC50 of the first is lower: 100 to 500 nM for the first, greater than 500 nM for the second. The first is the more potent here.

Compared with Cc1cccc(C)c1CNc1cc(NC(=O)C2CCCC2)cn2c(C)c(C)nc12 [Example 1, N-(8-((2,6-dimethylbenzyl)amino)-2,3-dimethylimidazo[1,2-a]pyridin-6-yl)cyclopentanecarboxamide], Cc1cccc(C)c1CNc1cc(NC(=O)C2CCCCC2)cn2c(C)c(C)nc12 [Example 3, N-(8-((2,6-dimethylbenzyl)amino)-2,3-dimethylimidazo[1,2-a]pyridin-6-yl)cyclohexanecarboxamide] is higher in IC50: 100 to 500 nM for the first, greater than 500 nM for the second.

Cc1cccc(C)c1CNc1cc(NC(=O)C2CC2)cn2c(C)c(C)nc12 [Example 2, N-(8-((2,6-dimethylbenzyl)amino)-2,3-dimethylimidazo[1,2-a]pyridin-6-yl)cyclopropanecarboxamide] and Cc1cccc(C)c1CNc1cc(NC(=O)C2CCC2)cn2c(C)c(C)nc12 [Example 5, N-(8-((2,6-dimethylbenzyl)amino)-2,3-dimethylimidazo[1,2-a]pyridin-6-yl)cyclobutanecarboxamide] fall in the same range of IC50: 100 to 500 nM for the first, 100 to 500 nM for the second.

First: Cc1cccc(C)c1CNc1cc(NC(=O)N2CCC2)cn2c(C)c(C)nc12 [Example 6, N-(8-((2,6-dimethylbenzyl)amino)-2,3-dimethylimidazo[1,2-a]pyridin-6-yl)azetidine-1-carboxamide]
Second: Cc1cccc(C)c1CNc1cc(NC(=O)N2CCCC2)cn2c(C)c(C)nc12 [Example 11, N-(8-((2,6-dimethylbenzyl)amino)-2,3-dimethylimidazo[1,2-a]pyridin-6-yl)pyrrolidine-1-carboxamide]
The IC50 of the first is lower: 50 to 100 nM for the first, 100 to 500 nM for the second. The first is the more potent here.

First: Cc1cccc(C)c1CNc1cc(NC(=O)C(C)C)cn2c(C)c(C)nc12 [Example 7, N-(8-((2,6-dimethylbenzyl)amino)-2,3-dimethylimidazo[1,2-a]pyridin-6-yl)isobutyramide]
Second: Cc1cccc(C)c1CNc1cc(NC(=O)[C@H](C)N)cn2c(C)c(C)nc12 [Example 19, (S)-2-amino-N-(8-((2,6-dimethylbenzyl)amino)-2,3-dimethylimidazo[1,2-a]pyridin-6-yl)propanamide hydrochloride]
The IC50 of the first is higher: 100 to 500 nM for the first, 50 to 100 nM for the second.

First: Cc1cccc(C)c1CNc1cc(NC(=O)C(C)(C)C)cn2c(C)c(C)nc12 [Example 8, N-(8-((2,6-dimethylbenzyl)amino)-2,3-dimethylimidazo[1,2-a]pyridin-6-yl)pivalamide]
Second: Cc1cccc(C)c1CNc1cc(NC(=O)C(C)(C)N)cn2c(C)c(C)nc12 [Example 27, 2-amino-N-(8-((2,6-dimethylbenzyl)amino)-2,3-dimethylimidazo[1,2-a]pyridin-6-yl)-2-methylpropanamide hydrochloride]
The IC50 of the first is higher: greater than 500 nM for the first, 50 to 100 nM for the second. The second is the more potent here.

First: Cc1cccc(C)c1CNc1cc(NC(=O)C(F)F)cn2c(C)c(C)nc12 [Example 9, N-(8-((2,6-dimethylbenzyl)amino)-2,3-dimethylimidazo [1,2-a]pyridin-6-yl)-2,2-difluoroacetamide]
Second: Cc1cccc(C)c1CNc1cc(NC(=O)[C@@H](C)N)cn2c(C)c(C)nc12 [Example 20, (R)-2-amino-N-(8-((2,6-dimethylbenzyl)amino)-2,3-dimethylimidazo[1,2-a]pyridin-6-yl)propanamide hydrochloride]
The IC50 of the first is higher: greater than 500 nM for the first, 50 to 100 nM for the second.

First: Cc1cccc(C)c1CNc1cc(NC(=O)CN)cn2c(C)c(C)nc12.Cl [Example 10, 2-amino-N-(8-((2,6-dimethylbenzyl)amino)-2,3-dimethylimidazo[1,2-a]pyridin-6-yl)acetamide hydrochloride]
Second: CCC(=O)Nc1cc(NCc2c(C)cccc2C)c2nc(C)c(C)n2c1 [Example 13, N-(8-((2,6-dimethylbenzyl)amino)-2,3-dimethylimidazo[1,2-a]pyridin-6-yl)propionamide]
The IC50 of the first is lower: less than 50 nM for the first, 50 to 100 nM for the second.

First: Cc1cccc(C)c1CNc1cc(NC(=O)C23CC(C2)C3)cn2c(C)c(C)nc12 [Example 12, N-(8-((2,6-dimethylbenzyl)amino)-2,3-dimethylimidazo[1,2-a]pyridin-6-yl)bicyclo[1.1.1]pentane-1-carboxamide]
Second: Cc1cccc(C)c1CNc1cc(NC(=O)NC23CC(C2)C3)cn2c(C)c(C)nc12 [Example 29, 1-(bicyclo[1.1.1]pentan-1-yl)-3-(8-((2,6-dimethylbenzyl)amino)-2,3-dimethylimidazo[1,2-a]pyridin-6-yl)urea hydrochloride]
The IC50 of the first is lower: 100 to 500 nM for the first, greater than 500 nM for the second. The first is the more potent here.

First: Cc1cccc(C)c1CNc1cc(NC(=O)c2ncco2)cn2c(C)c(C)nc12 [Example 14, N-(8-((2,6-dimethylbenzyl)amino)-2,3-dimethylimidazo[1,2-a]pyridin-6-yl)oxazole-2-carboxamide]
Second: CNC(=O)Nc1cc(NCc2c(C)cccc2C)c2nc(C)c(C)n2c1 [Example 33, hydrochloride]
The IC50 of the first is higher: 100 to 500 nM for the first, less than 50 nM for the second. The second is the more potent here.

First: Cc1cccc(C)c1CNc1cc(NC(=O)C(C)(F)F)cn2c(C)c(C)nc12 [Example 16, N-(8-((2,6-dimethylbenzyl)amino)-2,3-dimethylimidazo[1,2-a]pyridin-6-yl)-2,2-difluoropropanamide]
Second: CCNC(=O)Nc1cc(NCc2c(C)cccc2C)c2nc(C)c(C)n2c1 [Example 22, 1-(8-((2,6-dimethylbenzyl)amino)-2,3-dimethylimidazo[1,2-a]pyridin-6-yl)-3-ethylurea]
The IC50 of the first is higher: 100 to 500 nM for the first, 50 to 100 nM for the second. The second is the more potent here.

Compared with Cc1cccc(C)c1CNc1cc(NC(=O)C2CC(F)C2)cn2c(C)c(C)nc12 (stereo not drawn) [Example 17, N-(8-((2,6-dimethylbenzyl)amino)-2,3-dimethylimidazo[1,2-a]pyridin-6-yl)-3-fluorocyclobutane-1-carboxamide], Cc1cccc(C)c1CNc1cc(NC(=O)[C@@H]2CCN2)cn2c(C)c(C)nc12 [Example 35, (S)-N-(8-((2,6-dimethylbenzyl)amino)-2,3-dimethylimidazo[1,2-a]pyridin-6-yl)azetidine-2-carboxamide hydrochloride] is lower in IC50: 100 to 500 nM for the first, 50 to 100 nM for the second.

First: Cc1cccc(C)c1CNc1cc(NS(=O)(=O)C2CCC2)cn2c(C)c(C)nc12 [Example 18, N-(8-((2,6-dimethylbenzyl)amino)-2,3-dimethylimidazo[1,2-a]pyridin-6-yl)cyclobutanesulfonamide]
Second: Cc1cccc(C)c1CNc1cc(NC(=O)NC2CCC2)cn2c(C)c(C)nc12 [Example 23, 1-cyclobutyl-3-(8-((2,6-dimethylbenzyl)amino)-2,3-dimethylimidazo[1,2-a]pyridin-6-yl)urea hydrochloride]
The IC50 of the first is higher: greater than 500 nM for the first, 50 to 100 nM for the second.

First: Cc1cccc(C)c1CNc1cc(NC(=O)NC2CC2)cn2c(C)c(C)nc12.Cl [Example 24, 1-cyclopropyl-3-(8-((2,6-dimethylbenzyl)amino)-2,3-dimethylimidazo[1,2-a]pyridin-6-yl)urea hydrochloride]
Second: Cc1cccc(C)c1CNc1cc(NC(=O)NCC2CC2)cn2c(C)c(C)nc12 [Example 30, 1-(cyclopropylmethyl)-3-(8-((2,6-dimethylbenzyl)amino)-2,3-dimethylimidazo[1,2-a]pyridin-6-yl)urea hydrochloride]
The IC50 of the first is lower: less than 50 nM for the first, 100 to 500 nM for the second. The first is the more potent here.

First: CC(=O)OCC(=O)Nc1cc(NCc2c(C)cccc2C)c2nc(C)c(C)n2c1 [Example 25, 2-((8-((2,6-dimethylbenzyl)amino)-2,3-dimethylimidazo[1,2-a]pyridin-6-yl)amino)-2-oxoethyl acetate]
Second: CCOC(=O)CC(=O)Nc1cc(NCc2c(C)cccc2C)c2nc(C)c(C)n2c1 [Example 34, ethyl 3-((8-((2,6-dimethylbenzyl)amino)-2,3-dimethylimidazo[1,2-a]pyridin-6-yl)amino)-3-oxopropanoate]
The IC50 of the first is lower: 100 to 500 nM for the first, greater than 500 nM for the second. The first is the more potent here.

Compared with Cc1cccc(C)c1CNc1cc(N2CCC2=O)cn2c(C)c(C)nc12 [Example 28, 1-(8-((2,6-dimethylbenzyl)amino)-2,3-dimethylimidazo[1,2-a]pyridin-6-yl)azetidin-2-one], Cc1cccc(C)c1CNc1cc(NC(=O)[C@H]2CCN2)cn2c(C)c(C)nc12 [Example 36, (R)-N-(8-((2,6-dimethylbenzyl)amino)-2,3-dimethylimidazo[1,2-a]pyridin-6-yl)azetidine-2-carboxamide hydrochloride] is lower in IC50: greater than 500 nM for the first, 50 to 100 nM for the second.

Compared with Cc1cccc(C)c1CNc1cc(NC(=O)NC(C)C)cn2c(C)c(C)nc12 [Example 31, 1-(8-((2,6-dimethylbenzyl)amino)-2,3-dimethylimidazo[1,2-a]pyridin-6-yl)-3-isopropylurea hydrochloride], CCN(C)C(=O)Nc1cc(NCc2c(C)cccc2C)c2nc(C)c(C)n2c1 [Example 32, 3-(8-((2,6-dimethylbenzyl)amino)-2,3-dimethylimidazo[1,2-a]pyridin-6-yl)-1-ethyl-1-methylurea hydrochloride] is lower in IC50: 100 to 500 nM for the first, 50 to 100 nM for the second.

Same assay, conditions: result in words

In the case of Cc1cccc(C)c1CNc1cc(Br)cn2c(C)c(C)nc12 [Comparative Example 1, reference compound], the “inhibitory activity against proton pump activity” value (“inhibitory activity” for short) is reported as “weak inhibitory activity”.
For COC(=O)c1cc(NCc2c(C)cccc2C)c2nc(C)c(C)n2c1 [Comparative Example 2, reference compound], the “inhibitory activity” value was “weak inhibitory activity”.
For Cc1cccc(C)c1CNc1cc(NC(=O)CN)cn2c(C)c(C)nc12.Cl [Example 10, 2-amino-N-(8-((2,6-dimethylbenzyl)amino)-2,3-dimethylimidazo[1,2-a]pyridin-6-yl)acetamide hydrochloride], the “inhibitory activity” value was “excellent inhibitory properties”.
In the case of Cc1cccc(C)c1CNc1cc(NC(=O)NC2CC2)cn2c(C)c(C)nc12.Cl [Example 24, 1-cyclopropyl-3-(8-((2,6-dimethylbenzyl)amino)-2,3-dimethylimidazo[1,2-a]pyridin-6-yl)urea hydrochloride], the “inhibitory activity” value is reported as “excellent inhibitory properties”.
With CNC(=O)Nc1cc(NCc2c(C)cccc2C)c2nc(C)c(C)n2c1 [Example 33, hydrochloride] the “inhibitory activity” value was “excellent inhibitory properties”.
